Results taken from patent publication US5567707A, “Acronycine analogues” (Adir et Compagnie, priority 1994, dated 1996).
Read-outs that look alike come from different tables or passages of the source.

What was measured:
P388 (murine leukaemia) = assay: Anti-tumour activity in vivo against line P388; design: species or system murine; B6D2F1 mice
From the text: (§1) In this Example, the compounds were suspended in Tween 80, then diluted with water. The concentration of Tween is at a maximum of 1% at the strongest doses. The control animals received the carrier only.
Line P388 (murine leukaemia) was supplied by the National Cancer Institute (Frederick, U.S.A.). The tumour cells (10^6 cells) were inoculated on day 0 into the peritoneal cavity of female B6D2F1 mice (Iffa-Credo, France). Eight to ten mice, of a weight ranging from 18 to 20 g, were used for each experimental group. The compounds were administered via the intraperitoneal route on day 1 or once a day for 4 days (D1-4), and by the intravenous route on day 1.
The anti-tumour activity is expressed as a T/C %: [formula]
Table 2 indicates the anti-tumour activity achieved at the optimum doses for each scheme and administration route.

colon 38 = assay: Anti-tumour activity in vivo against colon 38; design: species or system B6D2F1 mice; settings: for median T/C % (tumour volume on D21): D2,9, i.p.
Procedure: as §1
Colon 38 (supplied by NCI, Frederick, U.S.A.) was inserted in the form of fragments by the subcutaneous route (s.c.) into female B6D2F1 mice. The compounds were administered by the i.p. route on D2 and D9 and the anti-tumour activity was determined on D21 by measuring the rumour volume (T/C volume, %). [formula]

murine leukaemia L1210 = assay: Cytotoxicity for L1210 cells in culture (Microculture Tetrazolium Assay); format: cell-based; settings: Mus musculus, four doubling periods (48 hours)
Procedure: A cell line, murine leukaemia L1210, was used. The cells are cultivated in a complete culture medium RPMI 1640, containing 10% foetal calf serum, 2 mM glutamine, 50 units/ml penicillin, […] streptomycin and 10 mM Hepes, pH: 7.4. The cells are distributed on microplates and exposed to the cytotoxic compounds for four doubling periods, that is 48 hours. The number of viable cells is then quantified by a colorimetric assay, the Microculture Tetrazolium Assay (J. Carmichael et al., Cancer Res., 47, 936-942, (1987)). The results are expressed as IC50, the concentration of cytotoxic agent that inhibits the proliferation of treated cells by 50%.

[1] = tested on: HT-29 tumour cells (human colon adenocarcinoma); assay: HT-29 xenograft in hairless mice; format: in vivo, human tumour in hairless mice
From the text: as §1
HT-29 tumour cells originating from a human colon adenocarcinoma (American Type Culture Collection, U.S.A.) are inoculated by the subcutaneous route into hairless female mice (Iffa Credo, France). The tumour is then amplified by successive passages of tumour fragments of 2-3 mm^3 implanted bilaterally by the subcutaneous route in the animals' flanks. […] The animals are weighed and their tumour is measured twice a week.
The tumour volume is calculated in accordance with the following formula: [formula]
The results are expressed as the median relative tumour volume: [formula]
The anti-tumour activity of the compound administered is evaluated by the minimum value of the median T/C calculated at time t: [formula]
The minimum value of this parameter is evaluated a minimum of 7 days after the last treatment in accordance with EORTC (European Organization for the […]) standards.
(§2) The animals are treated by the i.p. route by weekly administration for 2 weeks of the compound of Example 1. D0 corresponds to the first time the tumours are measured and the first administration of compound.

[2] = Body weight change of hairless mice bearing HT-29 xenograft; format: in vivo; settings: 6.25 mg/kg, D0,7, i.p.
From the text: HT-29 tumour cells originating from a human colon adenocarcinoma (American Type Culture Collection, U.S.A.) are inoculated by the subcutaneous route into hairless female mice (Iffa Credo, France). The tumour is then amplified by successive passages of tumour fragments of 2-3 mm^3 implanted bilaterally by the subcutaneous route in the animals' flanks. When the tumour has reached a size of 50 mm^3 (that is between 7 and 10 days after the graft), the animals are randomised into groups of 7 to 10 mice and treated in accordance with the protocol indicated. The animals are weighed and their tumour is measured twice a week.
as §2

[3] = background statement; prevented i.v. administration; cited from earlier work
[4] = cited from earlier work
experimental models = settings: especially against solid tumours, G. H. Svoboda et al.; cited from earlier work
Solubility = format: physicochemical; settings: prevents i.v. testing
[5] = J. H. Scarffe et al.; cited from earlier work

For COc1cc2c(c3c1c(=O)c1ccccc1n3C)[C@@H](OC(C)=O)[C@@H](OC(C)=O)C(C)(C)O2 (relative stereo) [Example 1, (±)-cis-1,2-diacetoxy-1,2-dihydro-acronycine], the “T/C % (survival)” value (P388 (murine leukaemia); D1, i.p., optimum dose 25 mg/kg) was 289%, the “T/C % (survival)” value (P388 (murine leukaemia); D1, i.v., optimum dose 25 mg/kg) was 220% and the “T/C % (survival)” value (P388 (murine leukaemia); D1-4, i.p., optimum dose 12.5 mg/kg) was 172%. For the same compound, the “activity against P388 (in words)” value (P388 (murine leukaemia); i.p. and i.v. routes) was “extremely active”, the “activity against colon 38 compared with 5-fluoro-uracil (in words)” value (colon 38; 25 mg/kg versus 5-fluoro-uracil at 80 mg/kg) was “as active at 25 mg/kg as 5-fluoro-uracil” and the “median T/C % (tumour volume on D21)” value (colon 38; 6.25 mg/kg) was 12%. For the same compound, the “median T/C % (tumour volume on D21)” value (colon 38; 12.5 mg/kg) was 8%, the “median T/C % (tumour volume on D21)” value (colon 38; 25 mg/kg) was 1% and the “activity against colon 38 (in words)” value (colon 38; i.p.) was “very active”. For the same compound, the IC50 (murine leukaemia L1210) was 4.9 µM, the “Minimum median T/C % (day)” value ([1]; 6.25 mg/kg, D0,7, i.p., minimum at D32) was 46% and the “activity against HT-29 (in words)” value ([1]; i.p., weekly for 2 weeks) was “active against that very resistant tumour”. The “Δ weight (D10-D0)” value [2] was -1.1 g.

COc1cc2c(c3c1c(=O)c1ccccc1n3C)[C@H](OC(=O)c1ccccc1)[C@@H](OC(=O)c1ccccc1)C(C)(C)O2 (relative stereo) [Example 3, (±)-trans-1,2-dibenzoyloxy-1,2-dihydro-acronycine] gave an IC50 (murine leukaemia L1210) of 3.4 µM.

For COc1cc2c(c3c1c(=O)c1ccccc1n3C)[C@@H](O)[C@@H](OC(=O)c1ccccc1)C(C)(C)O2 (relative stereo) [Example 5, (±)-cis-2-benzoyloxy-1-hydroxy-1,2-dihydro-acronycine], the “T/C % (survival)” value (P388 (murine leukaemia); D1, i.p., optimum dose 12.5 mg/kg) was 258% and the IC50 (murine leukaemia L1210) was 7.1 µM.

With COc1cc2c(c3c1c(=O)c1ccccc1n3C)[C@@H](OC(C)=O)[C@@H](OC(=O)c1ccccc1)C(C)(C)O2 (relative stereo) [Example 6, (±)-cis-1-acetoxy-2-benzoyloxy-1,2-dihydro-acronycine] the IC50 (murine leukaemia L1210) was 5 µM.

In the case of COc1cc2c(c3c1c(=O)c1ccccc1n3C)[C@H]1OC(=O)O[C@H]1C(C)(C)O2 (relative stereo) [Example 7, (±)-cis-1,2-carbonyldioxy-1,2-dihydro-acronycine], the “T/C % (survival)” value (P388 (murine leukaemia); D1, i.p., optimum dose 50 mg/kg) is reported as 269% and the IC50 (murine leukaemia L1210) is reported as 0.2 µM.

In the case of O=c1[nH]cc(F)c(=O)[nH]1 [5-fluoro-uracil, reference compound], the “median T/C % (tumour volume on D21)” value (colon 38; 80 mg/kg) is reported as 0%.

For COc1cc2c(c3c1c(=O)c1ccccc1n3C)C=CC(C)(C)O2 [acronycine], the “solubility (in words)” value [3] is given as “insolubility”, the “oral bioavailability (in words)” value [4] is given as “poor bioavailability” and the “anti-tumour spectrum (in words)” value (experimental models) is given as “broad spectrum of activity”. For the same compound, the “T/C % (survival)” value (P388 (murine leukaemia); D1, i.p., optimum dose 200 mg/kg) was 125%, the “T/C % (survival)” value (P388 (murine leukaemia); D1-4, i.p., optimum dose 100 mg/kg) was 136% and the “activity against P388 (in words)” value (P388 (murine leukaemia); i.p. route, at far stronger doses) was “weak activity”. The “solubility (in words)” value (Solubility) was “completely insoluble”, the “median T/C % (tumour volume on D21)” value (colon 38; 100 mg/kg) was 77% and the “median T/C % (tumour volume on D21)” value (colon 38; 200 mg/kg) was 61%. The clinical response [5] was “little response” and the IC50 (murine leukaemia L1210) was 27 µM.
